This is an account of results in patent publication US20080050819A1, “Constructs for Marker Excision Based on Dual-Function Selection Marker” (BASF Plant Science GmbH, priority 2004, published 2008).

For experiment [1], the system named is wild-type plants (A. thaliana). In words: Toxicity of keto acids to wild-type plants on half strength MS agar plates. In kind it is in vivo, Arabidopsis thaliana. Conditions: for effect on growth of A. thaliana: in vivo. As for the experimental part: (§1) To evaluate the toxic action of 3-methyl-2-oxopentanoate and 3-methyl-2-oxobutanoate, wild-type plants were sown on two sets of half strength MS agar plates, each containing one of the compounds in a range of concentrations (0.01-10 mM). […] For 3-methyl-2-oxobutanoate, 5 mM was required for complete inhibition. Further, several attempts were made to probe the nature of D-serine's toxicity.

In the next experiment the test system is DAAO transgenic plants. In words: Germination of DAAO transgenic plants on D-Asn (cytosolic and peroxisomal DAAO). The conditions noted are these: 30 mM; cytosolic and peroxisomal DAAO constructs vs wild-type. It is filed as in vivo.
The subject of experiment [2] is wild-type Arabidopsis thaliana. In words: Growth of wild-type A. thaliana on D-amino acid media. It is filed as in vivo. The conditions noted are these: 30 mM, FIG. 2.
For experiment [3], the system named is dao1 transgenic A. thaliana. In words: Growth of dao1 (DAAO) transgenic A. thaliana on D-amino acid media. It is filed as in vivo, Arabidopsis thaliana. As for the experimental part: (§2) FIG. 4 D-amino acid dose responses of dao1 transgenic and wild-type A. thaliana. • (a-d) Growth of dao1 transgenic line 3:7 (white), 10:7 (light gray), 13:4 (gray) and wild-type (black) plants, in fresh weight per plant, on media containing various concentrations of D-serine, D-alanine, D-isoleucine and D-valine in half-strength MS with 0.5% (wt/vol) sucrose and 0.8% (wt/vol) agar. Different concentration ranges were used for different D-amino acids. The plants were grown for 10 d after germination under 16 h photoperiods at 24° C.; n=10±s.e.m., except for plants grown on D-isoleucine, where smaller Petri dishes were used, (n=6±s.e.m.). • (e-l) Photographs of dao1 transgenic line 10:7 (e-h) and wild-type plants (i-l), grown for 10 d on the highest concentrations of the D-amino acid shown in the respective graphs above. All pictures have the same magnification. FW, fresh weight.
Therefore, plants containing the construct were tested as described above on two sets of media, one containing D-isoleucine and the other containing D-valine at various concentrations, to assess whether DAAO could also be used as a counter-selection marker. Unambiguous counter-selection selection was achieved when seeds were sown on either D-isoleucine or D-valine at concentrations greater than 10 mM (FIG. 4 c,d).

Experiment [4] deals with DAAO transgenic seedlings. In words: Spray application of D-amino acids on soil-grown DAAO transgenic seedlings. It is filed as in vivo, Arabidopsis thaliana. The conditions noted are these: 50 mM spray. The method, then:
(§3) FIG. 5: Selection of primary transformants with the DAAO marker. • (a-c) DAAO T1 seedlings on media containing 3 mM D-alanine (a), 3 mM D-serine (b) and 50 μg ml-1 kanamycin (c). Seeds were surface-sterilized and sown on half-strength MS plates with 0.5% (wt/vol) sucrose, 0.8% (wt/vol) agar and the respective selective compound, then grown for 5 d after germination under 16 h photoperiods at 24° C. • (d) DAAO transgenic plants grown on soil photographed after selection by spraying with (1) D-alanine and (2) D-serine, and wild-type plants sprayed with (3) D-alanine and (4) D-serine. Eight seeds per plot and treatment were sown on soil, and grown for 7 d after germination before applying the selective treatment, which consisted of spraying with aqueous 50 mM solutions of D-alanine or D-serine with 0.05% Tween 80 on three consecutive days.
(§4) FIG.: 11 D-amino acids are applicable by spraying procedure DAAO transgenic plants grown on soil photographed after selection by spraying with (1) D-alanine and (2) D-serine, and wild-type plants sprayed with (3) D-alanine and (4) D-serine. Eight seeds per plot and treatment were sown on soil, and grown for 7 d after germination before applying the selective treatment, which consisted of spraying with aqueous 50 mM solutions of D-alanine or D-serine with 0.05% Tween 80 on three consecutive days.

For experiment [5], the system named is wild-type Arabidopsis thaliana. In words: Growth of wild-type A. thaliana on D-amino acid media. The conditions noted are these: for effect on growth of wild-type plantlets: FIG. 3, half-concentrated MS medium supplemented at 3 mM (Panel A) or 30 mM (Panel B); for effect on wild-type plants: concentration not stated / various concentrations. It is filed as in vivo. The method, then: FIG. 3 Effect of various D-amino acids on plant growth. • Wild type Arabidopsis thaliana plantlets were grown on half-concentrated Murashige-Skoog medium (0.5% (wt/vol) sucrose, 0.8% (wt/vol) agar) supplemented with the indicated D-amino acid at either 3 mM (Panel A) or 30 mM (Panel B).
as §2

For a further experiment, the system named is wild-type seedlings. In words: Spray application of D-amino acids on soil-grown wild-type seedlings. It is filed as in vivo, Arabidopsis thaliana. The conditions noted are these: one-week-old seedlings, 50 mM, sprayed on three consecutive days. The method, then:
as §3, §4

The next experiment deals with T1, DAAO (Rhodotorula toruloides, UniProt P80324).
T1 construct: expressed in transfected cells; host or cells: Arabidopsis thaliana (Col-0) dao1 transgenic line 10:7, stably transformed with pPCV702:dao1 (CaMV 35S); crude soluble protein extract
T1 sequence (P80324 25-368): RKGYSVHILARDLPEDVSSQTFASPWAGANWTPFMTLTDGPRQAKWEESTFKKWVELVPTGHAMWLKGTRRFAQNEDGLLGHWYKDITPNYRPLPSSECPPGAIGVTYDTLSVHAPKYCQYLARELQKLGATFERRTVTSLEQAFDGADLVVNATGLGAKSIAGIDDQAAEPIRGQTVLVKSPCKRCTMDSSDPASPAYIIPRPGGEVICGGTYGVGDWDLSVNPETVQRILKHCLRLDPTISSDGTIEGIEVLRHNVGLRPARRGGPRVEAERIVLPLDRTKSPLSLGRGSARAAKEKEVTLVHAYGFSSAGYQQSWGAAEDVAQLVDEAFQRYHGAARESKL
In words: DAAO incubation of cell-free plant extracts, keto acid production by HPLC. The conditions noted are these: cell-free extracts from dao1 transgenic line 10:7. It is filed as biochemical, Rhodotorula gracilis. As for the experimental part: Soluble proteins were extracted by shaking 0.1 g samples of plant material that had been finely pulverized in a 1.5 ml Eppendorf tube in 1 ml of 0.1 M potassium phosphate buffer, pH 8. DAAO activity was then assayed as follows. Reaction mixtures were pre-pared containing 2,120 μl of 0.1 M potassium phosphate buffer, pH 8, 80 μl of crude protein extract and 100 μl of 0.3 M D-alanine. The samples were incubated for 2 h at 30° C. The enzyme activity was then assessed, by measuring the increase in absorbance at 220 nm (E=1.090 M^−1 cm^−1) associated with the conversion of D-alanine to pyruvate, after transferring the test tubes to boiling water for 10 min to stop the reaction. In control reactions, D-alanine was added immediately before boiling. One unit of DAAO activity is defined as the turnover of one micromole of substrate per minute, and activity was expressed per gram plant biomass (fresh weight). The breakdown of D-isoleucine and D-valine in DAAO incubations, and the associated production of 3-methyl-2-oxopentanoate and 3-methyl-2-oxobutanoate, were analyzed by high-performance liquid chromatography. In other respects the reactions were carried out as described above.

Experiment [6] relates to poplar, tobacco, barley, maize, tomato and spruce. In words: Susceptibility of other plant species to D-serine. The conditions noted are these: concentrations similar to those toxic for A. thaliana; FIG. 6+7. It is filed as in vivo.
In experiment [7] the test system is T1 seeds of transgenic Arabidopsis plants. In words: Selection of DAAO (35S:dao1 / pNos:nptII) T1 seeds on selective media. It is filed as in vivo, Arabidopsis thaliana. Conditions: FIG. 4a. From the text: Flowering A. thaliana plants were then transformed by the floral dip method (Clough S J & Bent A F (1998) Plant J. 16, 735-743 (1998) with the transgenic Agrobacterium tumefaciens strain carrying the vector described above by dipping for 10-20 seconds into the Agrobacterium solution. Afterwards the plants were kept in the greenhouse until seeds could be harvested. Transgenic seeds were selected by plating surface sterilized seeds on growth medium A (4.4 g/L MS salts [Sigma-Aldrich], 0.5 g/L MES [Duchefa]; 8 g/L Plant Agar [Duchefa]) supplemented with 50 mg/L kanamycin for plants carrying the nptII resistance marker, or 0.3 to 30 mM D-amino acids (as described below) for plants comprising the dual-function marker of the invention. Surviving plants were transferred to soil and grown in the greenhouse.
T1 seeds of transgenic Arabidopsis plants were surface-sterilized and sown in Petri plates that were sealed with gas-permeable tape. The growth medium was half strength MS19 with 0.5% (wt/vol) sucrose and 0.8% (wt/vol) agar, plus 3 mM D-alanine, 3 mM D-serine or 50 μg/ml kanamycin as the selective agent. […] To evaluate the selection efficiency on different substrates, 2,074, 1,914 and 1,810 T1 seeds were sown on D-alanine-, D-serine- and kanamycin-selective plates, respectively, and the number of surviving seedlings was counted (44, 32 and 43, respectively). […]

The subject of a further experiment is wildtype A. thaliana. In words: Attempted rescue of wild-type A. thaliana grown on lethal D-serine with potential inhibitors of D-serine toxicity. It is filed as in vivo, Arabidopsis thaliana. The conditions noted are these: lethal concentrations of D-serine, added separately and in combinations, 0.001-50 μg ml-1. The method, then: as §1
Where [8] appears, read: wild-type plants, half strength MS agar, tested range 0.01-10 mM.
[9] abbreviates: concentration not stated / various concentrations.

“Also recorded” adds a separate entry of the source.

For the compound `CC(C)C(=O)C(=O)O` [3-methyl-2-oxobutanoate], in experiment [1], the “effect on growth of A. thaliana” value is “impaired growth”. Further, the “concentration giving total (complete) growth inhibition” value in [1] (setting [8]) was 5 mM.

Turning to `CCC(C)C(=O)C(=O)O` (stereo not drawn) [3-methyl-2-oxopentanoate], in experiment [1], the “effect on growth of A. thaliana” value is given as “impaired growth”. Moreover, in experiment [1] (setting [8]), the “concentration at which plants were slightly affected” value worked out at 0.1 mM and the “concentration giving total (complete) growth inhibition” value was 1 mM.

`NC(=O)C[C@@H](N)C(=O)O` [D-Asn, D-asparagine]: in the experiment with DAAO transgenic plants, the “inhibition of germination of DAAO transgenic plants” value was “inhibited significantly more than the wild-type”.

Take `C[C@@H](N)C(=O)O` [D-alanine]: in experiment [2], the “effect on wild-type plantlets” value is “toxic effect”. In addition, the “effect on transgenic (DAAO) plants” value in experiment [3] (30 mM) is “no severe damage; also recorded: no negative effect”. Further, the “effect on transgenic (DAAO) plants” value in [3] (setting [9]) was “detoxify; also recorded: developed normally”. Also, the “response of transgenic seedlings to foliar application” value in [4] was “resistant”. In addition, in experiment [5], the “effect on growth of wild-type plantlets” value is “severe phytotoxic effects” and the “effect on wild-type plants” value was “inhibited even at quite low concentrations; also recorded: inhibited growth”. Besides, the “effect of sprayed application on wild-type seedlings” value in the experiment with wild-type seedlings is “effectively killed”.

On to `CC[C@@H](C)[C@@H](N)C(=O)O` [D-isoleucine], for which the “effect on wild-type plantlets” value in [2] is “no severe damage”. For the same compound, the “increase in production of the keto acid (3-methyl-2-oxopentanoate / 3-methyl-2-oxobutanoate) compared to extracts of wild-type plants” value at DAAO was 15 fold. The “effect on transgenic (DAAO) plants” value in experiment [3] (30 mM) is given as “toxic effect”. In addition, the “effect on transgenic (DAAO) plants” value in experiment [3] (setting [9]) was “strong negative influence; also recorded: inhibit growth; also recorded: effectively killed”. Also, in [5], the “effect on growth of wild-type plantlets” value is reported as “no significant effects” and the “effect on wild-type plants” value is given as “not toxic; also recorded: minor effects; also recorded: not the wild-type plants; also recorded: no sign of toxicity”.

`N[C@H](CO)C(=O)O` [D-serine]: the “effect on transgenic (DAAO) plants” value in experiment [3] (3 mM) is on record as “slightly inhibited the growth”; in [3] (30 mM), “significant growth inhibition”; in experiment [3] (setting [9]) it was “detoxify; also recorded: developed normally”. In [6], the “toxicity to other plant species” value is reported as “toxic effects; also recorded: susceptible”. In addition, in [7], the “concentration at which efficient selection was achieved” value is recorded as “lower than 1 mM”. In addition, in [4], the “response of transgenic seedlings to foliar application” value is given as “resistant”. Besides, the “effect on growth of wild-type plantlets” value in experiment [5] is “severe phytotoxic effects”. Also, the “effect on wild-type plants” value in experiment [5] is recorded as “inhibited even at quite low concentrations; also recorded: inhibited growth”. Also, in the experiment on wild-type seedlings, the “effect of sprayed application on wild-type seedlings” value is reported as “effectively killed”.

For `CC(C)[C@@H](N)C(=O)O` [D-valine], the “increase in production of the keto acid (3-methyl-2-oxopentanoate / 3-methyl-2-oxobutanoate) compared to extracts of wild-type plants” value on DAAO was 7 fold. The “effect on transgenic (DAAO) plants” value in experiment [3] (setting [9]) was “strong negative influence; also recorded: inhibit growth”. For the same compound, in [5], the “effect on wild-type plants” value was “not toxic; also recorded: minor effects; also recorded: not the wild-type plants; also recorded: moderately negative effect”.

Consider `CC[C@H](C)[C@H](N)C(=O)O` [L-isoleucine], for which the “effect on wild-type plants” value in experiment [5] was “negative effects”.

With `N[C@@H](CO)C(=O)O` [L-serine], in the experiment on wildtype A. thaliana, the “rescue (mitigation) of D-serine toxicity” value is given as “without any success”.

For the compound `CC(C)C[C@H](N)C(=O)O` [leucine], the “rescue (mitigation) of D-serine toxicity” value with wildtype A. thaliana is listed as “without any success”.

On to `CC(C)(CO)[C@@H](O)C(=O)NCCC(=O)O` [pantothenic acid], for which the “rescue (mitigation) of D-serine toxicity” value with wildtype A. thaliana is reported as “could not be mitigated”.

As to `C[C@@H](O)[C@H](N)C(=O)O` [threonine], in the experiment on wildtype A. thaliana, the “rescue (mitigation) of D-serine toxicity” value is “without any success”.

In the case of `NCCC(=O)O` [β-alanine], the “rescue (mitigation) of D-serine toxicity” value was “without any success” in the experiment on wildtype A. thaliana and “could not be mitigated” in the experiment on wildtype A. thaliana (listed as â-alanine).

As to calcium-pantothenate, the “rescue (mitigation) of D-serine toxicity” value in the experiment on wildtype A. thaliana is on record as “without any success”.
